Experimental data published in patent US6011000A, “Compositions for the treatment of blood disorders” (priority 1995, dated 2000).

Columns and labels:
MCF-7 cells = assay: Growth/viability of human mammary carcinoma cells; assay type: cell-based; details: MCF7, 96 h, 4 days, read-out: growth decrease of MCF-7 cells
Experimental: Human mammary carcinoma cells (MCF-7) were cultured alone (controls) and with arginine butyrate or isobutyramide for 4 days. Viability was assayed by FACS after incubation with a fluorescent dye taken up by viable cells (FIG. 6). Growth was decreased by 50% with isobutyramide at 1.0 mM, about 60% with arginine butyrate at 0.5 mM, and greater than 90% with arginine butyrate at 1.0 mM.

fetal globin production = details: cited from earlier work
[1] = system: γ-globin promoter (-61 construct, K562 cells); assay type: cell-based, human
Text: Functional assay underscores the important role of FRE-γ1 in γ-globin gene expression in K562 cells. To ascertain whether the FRE elements of the γ-globin promoter that were identified by in vivo footprinting were indeed involved in arginine butyrate inducibility for γ-globin gene expression, a series of 5' deletion constructs of the γ-globin promoter, extending from -256 to -61, were constructed and linked them to the NEO gene. Activity of the NEO gene of these constructs, in response to arginine butyrate treatment, was examined by transfecting these reporters into K562 cells. In K562 cells, a construct driven by 256 bp of promoter was able to direct NEO activity expression, resulting in colony formation. […] Deletion to position -61 reduced promoter activity to 33-40% of the activity seen with the -256 bp construct.

[2] = system: fetal globin (gamma globin); assay: Fetal globin expression in erythroid progenitor cells from cord blood; assay type: cell-based, human
Experimental: Compositions were tested for activity in inducing fetal globin expression and protein production in erythroid progenitor cells cultured from human cord blood and analyzed as described by S. P. Perrine et al. (Blood 74: 454-60, 1989). Briefly, mononuclear cells were cultured in IMDM with 30% fetal calf serum and 2 units erythropoietin per ml to induce erythroid differentiation. Colonies were harvested on day 12-13, incubated with radio-labelled (^3 H) leucine, and further incubated in leucine-free media, still in the presence of compounds, overnight. Globin composition in the erythroid cells was analyzed by laser densitometry of electrophoretically separated globin chains stained with Coomassie blue, and by autoradiography. Treated cells were incubated for 12-13 days (Table 2, Experiments A and B) or overnight (Table 2, Experiment C) in the presence of the indicated compounds and compared to untreated control cells cultured from the same human subject.

[3] = system: proximal promoter of the gamma globin gene (K562 cells); assay: Gamma globin promoter-neomycin transfection (61 bp proximal promoter), G418-resistant colonies; assay type: cell-based, human
Experimental: Gamma globin promoter-neomycin transfection experiments were performed to determine if compounds act by inducing an increase in activity from the proximal promoter of the gamma globin gene. Constructs containing 61 bp of the proximal gamma globin promoter were linked to the reporter gene for neomycin phosphotransferase (NEO) and transfected into permissive K562 cells by electroporation. After 18 hours, transfected cells were passed at 10^3 cells per well into RPMI media containing G418 (neomycin), which kills all mammalian cells unless the gene for NEO is expressed. Phenoxyacetic acid and thiophenoxyacetic acid were added to some of the cells plated into the RPMI/G418 media at concentrations of 1 mM. Cultures were incubated for 8 weeks with media changes performed as needed. Colonies which survived and grew in the presence of G418 were scored and the number of such colonies was compared to those generated when the cells were plated into G418 media without the test compounds. […] There was a greater than 6-fold (>600%) increase in proportions of colonies surviving the presence of phenoxyacetic acid (6/24 wells) and a three-fold (300%) increase in survival in the presence of thiophenoxyacetic acid (3/24 wells).

[4] = system: BFU-e (burst forming unit-erythroid); assay: BFU-e stimulation (colony growth) in cultured peripheral blood mononuclear cells; assay type: cell-based; details: Homo sapiens, PBMC, read-out: more BFU-e colonies from the same number of mononuclear cells than control cultures
Experimental: Peripheral blood was collected from normal volunteers and patients with anemia due to sickle cell disease or thalassemia Mononuclear cells were isolated by Ficoll-Hypaque (Pharmacia Biotech; Piscataway, N.J.) centrifugation and cultured in Iscove's Modified Dulbecco's Media (IMDM; GIBCO/BRL; Grand Island, N.Y.) supplemented with 10% fetal calf serum, 300 μg/ml glutamine, 3 units/ml IL 3 (Amgen; Thousand Oaks, Calif.), and 2 units/ml erythropoietin (Terry Fox Labs; Vancouver, B.C.). Chemical compounds were obtained from Sigma Chemical (St. Louis, Mo.) or Aldrich Chemical (Milwaukee, Wis.), unless otherwise indicated, and formulated into pharmaceutical compositions by dissolving in aqueous solutions of media or sterile water pH adjusted to about 7.4. Solutions were sterilized by passage at least once through 0.22 micron Nalgene filters and added to cell cultures at final concentrations that are pharmaceutically achievable in vivo (typically between about 0.1 mM to 2.0 MM). Cells were incubated with compounds for between 13-14 days at 37° C. in humidified 5% CO2, and fed and passed, as necessary. Colony growth, proportion of fetal globin-expressing cells and amounts of fetal globin production were assayed. Results are presented in Table 1 as BFU-e stimulation (colony growth). […]

[5] = Homo sapiens, K562, 1344 h, read-out: increase in proportions of colonies surviving

Row | Structure (SMILES) | inhibition at 500 µM (MCF-7 cells; 0.5 mM) [%] | inhibition at 1000 µM (MCF-7 cells; 1.0 mM) [%] | stimulation of fetal globin production (fetal globin production) | induction of construct activity [1] | Gamma/(Gamma + Beta) ([2]; Exp. A, 0.1 mM, 12-13 days, untreated 76.0%) [%] | Gamma/(Gamma + Beta) ([2]; Exp. B, 0.5 mM, 12-13 days, untreated 25.4%, 27.5%) [%] | Gamma/(Gamma + Beta) ([2]; Exp. C, 0.5 mM, overnight, untreated 52.0%) [%] | colonies surviving ([3]; 1 mM, 8 weeks in G418, none of 24 wells without compound) | activation at 1000 µM [3, 5] [%] | fold induction at 1000 µM [3, 5] | activation at 100 µM [4] [%]
1 | CCCC(=O)O [AB, arginine butyrate] | ~60 | > 90 | effective in stimulating fetal globin production | 2.5-4 fold |  |  |  |  |  |  | 
2 | O=C(O)COc1ccccc1 [PAA, Phenoxyacetic acid] |  |  |  |  | 82.0 | 38.8 | 55.6 | 6/24 | > 600 | > 6 | 135
